Experimental data taken from patent US10207988B2, “Methods and compositions for treatment of cancer and autoimmune disease” (THE JACKSON LABORATORY, priority 2011, dated 2019).

What was measured:
[1] = test system: phospho-H2AX foci in mouse primary splenocytes (AID+/+ and AID−/−); assay: phospho-H2AX foci in activated splenocytes exposed to DIDS; format: cell-based; settings: 150 micromolar DIDS
Excerpt: Mouse primary splenocytes isolated from 8-12 week old wild type (AID+/+) and AID-knockout (AID−/−) mice as described in Example 1 were exposed to 150 micromolar DIDS, and activated by anti-CD40 antibody plus interleukin-4, fixed and stained for the DNA break marker phospho-H2AX and for nuclear DNA using the fluorescent DNA staining dye 4′,6-diamidino-2-phenylindole (DAPI). In FIG. 16A the fraction of cells containing 0, 1-2, or greater than 2 phospho-H2AX positive foci was quantified for AID+/+ (filled bars) and AID−/− (open bars) cells. […] In FIG. 16B the proportion of phospho-H2AX positive cells (filled bars) versus phospho-H2AX negative cells (open bars) was quantified for AID+/+ in comparison to AID−/− cultures. […] In FIG. 16C the number of foci per cell was quantified for DIDS-treated AID+/+ (filled bars) versus AID−/− (open bars) cells. Data are expressed as the absolute number of cells (y-axis) harboring the indicated number of phosphor-H2AX foci (from 0 to >20; x-axis).

[2] = test system: primary chronic lymphocytic leukemia (CLL) cells; assay: viable cell counts of primary human CLL cells treated with DIDS; format: cell-based; settings: 150 μM or 600 μM DIDS, days 2, 4, 6, 8, relative to untreated control
Experimental: Blood samples (8-16 mL) from patients were collected via peripheral bleed into BD Vacutainer CPT tubes (BD, Franklin Lakes, N.J.), centrifuged to sequester red blood cells below the separation gel according to manufacturer instructions, and transported within 24 hours to the Jackson Laboratory. Upon receipt, peripheral blood mononuclear cells (PBMC) were isolated from samples according to manufacturer specifications. White blood cell (WBC) counts from 14 primary chronic lymphocytic leukemia (CLL) samples from human patients were calculated from complete blood count (CBC) with differentials. Calculated values were compared with empirical cell counts following cell separation and overnight shipping. […] The primary CLL samples (WBC) were diluted to standard concentration and 3.0×10^6 cells were seeded in cultures. Replicate cultures were supplemented with 0 μM (n=5), 150 μM DIDS (n=4), or 600 μM DIDS (n=2). Viable cell counts were determined by manual counting using a hemacytometer on days 2, 4, 6, and 8 of culture.

[3] = test system: primary wild-type mouse splenocytes; assay: radiosensitivity of primary splenocytes after exposure to DIDS (cell counts after 2.5 Gy); format: cell-based; settings: Splenocyte, light or radiation study, 36 h, read-out: reduction in viability
Experimental: To validate DIDS as a potential agent, and to confirm its DSB repair inhibitory activity, radiosensitivity of primary wild-type mouse splenocytes was measured after exposure to DIDS. A total of 2×10^6 splenocytes were suspended in medium with 0, 300 μM, 600 μM or 1000 μM DIDS, or in vehicle-only control, and immediately given 2.5 Gy ionizing irradiation using a ^137Cs irradiator (Shepard). Cells were then cultured in medium containing the same DIDS concentration, and cell counts were determined after 36 hours recovery time.

[4] = test system: AID+/+ (C57BL/6) or AID−/− mice; assay: systemic DIDS treatment of DNP-KLH immunized mice; format: in vivo
Experimental: To test the in vivo effectiveness of DIDS, either AID+/+ (C57BL/6) or AID−/− mice (Muramatsu et al. et al., 2000 supra) were administered DIDS (10 mg/kg or 50 mg/kg) at weekly intervals, immunized at weeks 1 with dinitrophenol conjugated Keyhole limpet hemocyanin (DNP-KLH) in complete Freund's adjuvant (CFA) to stimulate lymphocyte activation, and boosted after 4 weeks with DNP-KLH (in incomplete Freund's adjuvant, IFA). After a total of 7 weeks (FIG. 25A) mice were euthanized. The group size was n=5. […] For this the mice were weighed weekly and the data represent the average fractional change in body mass for five animals, and error bars denote S.E.M.
After the 7-week trial window, tissues from treated and control animals were fixed, sectioned, and analyzed after hematoxylin and eosin (H&E) staining. […] To determine whether DIDS induced a B-cell specific phenotype related to AID, bone marrow, spleen, and peripheral blood, from DIDS-treated AID+/+ versus AID−/− mice, were analyzed for the presence of B220+CD19+ B-cells, by flow cytometry (FIG. 26). […] In FIG. 26 the endpoint flow cytometry dot plot analysis of bone marrow, spleen, and peripheral blood from AID−/− and AID+/+ mice immunized with DNP-KLH and treated with 0, 10, or 50 mg/kg DIDS is shown. Plots represent the population of cells in the lymphocyte gate stained for expression of B220 (y-axis) and CD19 (x-axis). The numbers in the upper right corner of each plot provide the percentage of B220+/CD19+ cells for each analysis. The progression of B-cell maturation from early/pre-GC to post-GC is indicated below.

[5] = test system: RAD51 foci in primary mouse B-cells; assay: RAD51 focus formation after ionizing radiation (immunofluorescence); format: cell-based
Experimental: Primary mouse B-cells were isolated from spleen of wild type C57BL/6J mice by magnetic bead based sorting (Miltenyi) to purify B220+ IgM+ B-cells. B-cells were then […], exposed to 0 or 2.5 Gy ionizing radiation in a Cs137 irradiator, and then stained by immunofluorescence for foci of the homologous recombination factor RAD51. The fraction of cells in each culture showing formation of RAD51 foci within the nucleus is reported. Irradiated cells not cultured with DIDS (0 μM) show efficient focus formation. […] Error bars show the standard error of the mean (S.E.M) from three independent experiments.

**Q.** What does the source list for `O=S(=O)([O-])c1cc(N=C=S)ccc1/C=C/c1ccc(N=C=S)cc1S(=O)(=O)[O-].[Na+].[Na+]` [DIDS, 4,4′diisothiocyanostilbene-2,2′-disulfonic acid]?
**A.** proportion of phospho-H2AX positive cells ([1]; AID+/+ in comparison to AID−/− cultures): higher percentage of phospho-H2AX positive cells; fraction of cells with greater than 2 phospho-H2AX foci ([1]; AID+/+ versus AID−/− cells): significant higher fraction of cells with greater than 2 foci; viable cell counts [2]: significant decline in viable cell counts; cytotoxicity at 600 µM [3]: ~25%; cytotoxicity at 1000 µM [3]: 87%; weight gain (fractional change in body mass) ([4]; 0 mg/kg control and 50 mg/kg cohorts, after 5 weeks): independent of DIDS exposure; overt signs of toxicity ([4]; 10 mg/kg or 50 mg/kg DIDS at weekly intervals, 7 weeks): No animals in either the control or DIDS-treated groups showed overt signs of toxicity; overt non-B-cell toxicity ([4]; AID+/+ or AID−/− cohort): none of the DIDS treated animals; percentages of splenic B-cells (flow cytometry) ([4]; AID+/+ or AID−/− mice): no consistent differences; toxicity / splenic physiology ([4]; at least up to 50 mg/kg, AID+/+ or AID−/− mice): does not induce significant toxicity or general defects in splenic physiology; reduction in circulating B-lymphoid cells (flow cytometry) ([4]; both 10 mg/kg and 50 mg/kg DIDS, AID+/+ mice): 9-11 fold; reduction in B220+CD19+ B-cells in the bone marrow (flow cytometry) ([4]; both 10 mg/kg and 50 mg/kg treated AID+/+ mice): 25%; spleen sections, H&E staining ([4]; untreated versus DIDS-treated animals, after 7 weeks): no gross anatomical defects or differences in germinal center (GC) architecture; fraction of cells with RAD51 foci ([5]; 150 μM DIDS, 2.5 Gy ionizing radiation): completely inhibits radiation-induced RAD51 focus formation; fraction of cells with RAD51 foci ([5]; 150 µM DIDS, irradiated cells (legend of FIG. 22)): completely inhibits radiation-induced RAD51 focus formation
